“Also recorded” adds a separate entry of the source.
Key:
[1] = Tolerability monitoring of mice for up to 24 hours; assay type: in vivo; details: male CD-1 mice, 30 mg/kg intraperitoneal, monitored up to 24 hours
Description: (§1) To determine whether the compounds of the present disclosure are capable of crossing the blood brain barrier (BBB), a key property for use of these compounds as CNS therapeutics, compound 3 was administered to mice in a pharmacokinetic study of plasma and brain tissue. A stable formulation compatible with chronic administration was prepared prior to administration, and analytical methods for measuring concentration of the compound in plasma and brain tissue were developed. Mice were additionally monitored for tolerability for up to 24 hours.

[2] = Dose formulation in 20% PEG400 in water; assay type: physicochemical; details: 5.00 mg/mL in 20% PEG400 in water
Description: (§2) For intraperitoneal (IP) dosing, the dose formulation was administered with a dose volume determined by the animals' body weight collected on the morning of dosing day.

[3] = In vivo pharmacokinetic study of plasma and brain tissue in mice; details: male CD-1 mice, 30 mg/kg intraperitoneal
Description: as §1
Animal Husbandry: Male CD-1 mice were group housed during a 2-3 day acclimation prior to the study at an animal room environment with a controlled environment (target conditions: temperature 18-26° C., relative humidity 30-70%, 12 hours artificial light and 12 hours dark). All animals had access to Certified Rodent Diet and water ad libitum.
as §2
Sample Collection & Processing:
Blood Samples: A blood sample (about 0.03 mL per time point) was collected from each mouse into polypropylene tubes at each timepoint. All blood samples were transferred into pre-chilled commercial EDTA-K2 tubes or pre-chilled plastic microcentrifuge tubes containing 2 μL of EDTA-K2 as anti-coagulant and placed on wet ice until centrifugation. Each collected blood sample was centrifuged for 15 minutes at 4° C. and 3000 g for plasma collection. Plasma from each mouse was transferred into a pre-labeled polypropylene tube in dry ice at each time point. After terminal collection, all plasmas were stored at approximately −80° C. until bioanalysis.
Brain Samples: Whole brain was dissected at each designated time point and rinsed twice cold in deionized water before processing. They were then blotted on filter paper, weighed and homogenized with 5-fold of cold 15 mM PBS/MeOH (V:V, 2:1) using mechanical method. The samples were kept with ice water when homogenizing, and further stored at −80° C. until bioanalysis.
Bioanalytical Method Development: A LC-MS/MS method was developed and used for the quantitative determination of test compound concentration in blood and brain with a calibration curve applied to determine the limits of quantification.
In Vivo Sample Analysis: Plasma and brain concentration versus time data along with C^max, Tmax, T1/2, and AUC(0-t) was analyzed by non-compartmental approaches using the Phoenix WinNonlin 6.3 software program.

[4] = molecular target: T1, tau protein (Homo sapiens, UniProt P10636, A469T); assay: Tau degradation assay (western blot) in human tau-A152T neurons; assay type: cell-based; details: 6-week differentiated A152T neurons; treatment for 24 hours; FIG. 6
T1 construct: cultured human differentiated frontotemporal lobar dementia (FTD) neurons; endogenous in cells; host or cells: human differentiated FTD neurons, tau-A152T (line 19-5-RC6)
T1 sequence (P10636 1-441 isoform P10636-8 A152T): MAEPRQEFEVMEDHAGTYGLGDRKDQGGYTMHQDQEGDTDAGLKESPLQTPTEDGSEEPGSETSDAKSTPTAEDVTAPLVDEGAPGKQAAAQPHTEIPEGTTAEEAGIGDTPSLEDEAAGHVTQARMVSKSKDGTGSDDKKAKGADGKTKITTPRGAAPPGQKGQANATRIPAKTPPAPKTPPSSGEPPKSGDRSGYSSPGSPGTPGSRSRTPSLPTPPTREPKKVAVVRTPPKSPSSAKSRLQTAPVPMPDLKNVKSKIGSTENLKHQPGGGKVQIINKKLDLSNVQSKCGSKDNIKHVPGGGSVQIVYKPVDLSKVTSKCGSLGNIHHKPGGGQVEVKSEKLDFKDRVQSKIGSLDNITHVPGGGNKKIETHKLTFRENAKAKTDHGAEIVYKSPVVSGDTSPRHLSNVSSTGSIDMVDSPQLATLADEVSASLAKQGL
Description: Example compounds 1-12 were evaluated for their ability to degrade tau protein in cultured human differentiated frontotemporal lobar dementia (FTD) neurons. […] For each condition, 1 well of differentiated neuronal cells (6 well-plate) was washed and collected in PBS, pelleted and lysed in RIPA buffer (Boston Bio-Products) with 2% SDS (Sigma), protease inhibitors (Roche Complete Mini tablets), and phosphatase inhibitors (Sigma), followed by sonication in a water sonicator (Bransonic Ultrasonic Baths, Thomas Scientific) for 5 min, and centrifugation at 20,000 g for 15 min. Supernatants were transferred to new tubes, total protein concentration was quantified with the Pierce BCA Protein Assay Kit (Thermo), and SDS-PAGE gels were loaded with 10 μg total protein per well (pre-boiled samples). Western blots were performed with the Novex NuPAGE SDS-PAGE Gel System (Invitrogen). All samples were resolved in 7% Tris-Acetate gels with Tris-Acetate running buffer (Invitrogen). Blots were probed with antibodies against total tau (TAU5) and phosphosrylated tau (Ser396), along with β-actin as a loading control; followed by corresponding HRP-linked secondary antibodies (Cell Signaling Technology), and SuperSignal West Pico Chemiluminescent Substrate (Thermo) detection. Membranes were exposed to autoradiographic film (LabScientific) and films were scanned using an Epson Perfection V800 Photo Scanner. Protein band intensities (pixel mean intensity) were quantified using Adobe Photoshop CS5 Histogram function. Whereas the vehicle alone (DMSO) had no effect on tau, varying degrading activity was observed amongst the compounds, however with overall similar relative levels of degrading activity between tau-A152T neurons and tau-P301L neurons. Compounds were added at the doses indicated of either 0.1, 1, 5, or 10 μM.
Four-week differentiated neurons, both non-mutant (8330-8) and tau-A152T (19-5-RC6) were employed. The neurons were treated with T807 for 24 hours (at 10 μg/mL=59.4 μM). One well of differentiated neuronal cells (6 well-plate, treated or untreated) was washed and collected in PBS, pelleted and directly lysed in 200 μL of Sample Buffer (New England Biolabs) supplemented with 3X DTT, boiled for 15 min and 10 μL of each lysate was run by SDS-PAGE in a 4-12% Bis-Tris Gel, with MOPS running buffer. Blots were probed with antibodies to total tau (DA9) and phosphorylated tau (Ser396, PHF1, AT8) along with GAPDH as a loading control.
Example compounds 2-5 were reevaluated for their ability to degrade tau protein in human FTD neurons as well as evaluate their effect on E3 ubiquitin ligases CRBN, VHL, and CHIP (FIG. 4A-E). For each control and treatment, 1 well of differentiated neuronal cells (6 well-plate) was washed and collected in PBS, pelleted and lysed in RIPA buffer (Boston Bio-Products) with 2% SDS (Sigma), protease inhibitors (Roche Complete Mini tablets), and phosphatase inhibitors (Sigma), followed by sonication in a water sonicator (Bransonic Ultrasonic Baths, Thomas Scientific) for 5 min, and centrifugation at 20,000 g for 15 min. Supernatants were transferred to new tubes, total protein concentration was quantified with the Pierce BCA Protein Assay Kit (Thermo), and SDS-PAGE gels were loaded with 10 μg total protein per well (pre-boiled samples). […] Protein band intensities (pixel mean intensity) were quantified using Adobe Photoshop CS5 Histogram function. […]

[5] = system: A152T neurons; assay: Neuronal viability / rescue of stress vulnerability to β-amyloid (1-42) peptide; details: A152T neurons differentiated 8 weeks, FIG. 7

O=C(CCc1ccc2c(c1)[nH]c1ccncc12)NCCOCCOCCNc1cccc2c1C(=O)N(C1CCC(=O)NC1=O)C2=O (stereo not shown) [Compound 3, N-(2-(2-(2-((2-(2,6-dioxopiperidin-3-yl)-1,3-dioxoisoindolin-4-yl)amino)ethoxy)ethoxy)ethyl)-3-(5H-pyrido[4,3-b]indol-7-yl)propanamide]
tolerability / adverse effects [1]: no adverse effects were observed; also recorded: well tolerated
appearance/stability of dose formulation [2]: clear, stable solution
brain penetration / crossing the blood-brain barrier ([3]; 20% PEG400/water, n=3 per group, 30 mg/kg): capable of brain penetration; also recorded: capable of crossing the blood-brain barrier
AUC0-last, Mean Brain ([3]; brain): 74.3 ng·h/mL
Cmax, Mean Brain ([3]; brain): 56.4 ng/mL
Tmax, Mean Brain ([3]; brain): 30 min
AUC0-last, Mean Plasma ([3]; plasma): 6938 ng·h/mL
Cmax, Mean Plasma ([3]; plasma): 4640 ng/mL
T1/2, Mean Plasma ([3]; plasma): 7.23 h
Tmax, Mean Plasma ([3]; plasma): 1.00 h
dose-dependency of effect on tau [4]: dose dependent effect on tau
rescue of stress vulnerability ([5]; 8 h pre-treatment, then 10 μM β-amyloid (1-42) peptide for 16 h): effective at rescuing stress vulnerability
effect on neuronal viability ([5]; compound alone): no effect on neuronal viability

Reference: US12622901B2, “Compounds for tau protein degradation” (Dana-Farber Cancer Institute, Inc., priority 2017, dated 2026)
